For one molecule, IC50 results are on record in PubChem BioAssay AID504792 (Sanford-Burnham Center for Chemical Genomics, 2011).

Active and inactive are the calls of the source.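 How the source made its calls: active means IC50 at or below 20 µM; inactive means the rest.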 Bounds are passed on as bounds.

The target in the experiment is Glucose-6-phosphate 1-dehydrogenase (Homo sapiens) (UniProt P11413). Kind of experiment: inhibition of Homo sapiens G6PD, dose series – biochemical, fluorescence, selectivity assay for P. falciparum G6PD inhibitor project, dose response (AID 504792). The note with it: human G6PD enzyme, NADPH resazurin-diaphorase fluorescence. A general note: Alamar Blue is a resazurin reagent that responds to reducing activity.
Sequence of Glucose-6-phosphate 1-dehydrogenase (Homo sapiens) (P11413 whole entry, looked up): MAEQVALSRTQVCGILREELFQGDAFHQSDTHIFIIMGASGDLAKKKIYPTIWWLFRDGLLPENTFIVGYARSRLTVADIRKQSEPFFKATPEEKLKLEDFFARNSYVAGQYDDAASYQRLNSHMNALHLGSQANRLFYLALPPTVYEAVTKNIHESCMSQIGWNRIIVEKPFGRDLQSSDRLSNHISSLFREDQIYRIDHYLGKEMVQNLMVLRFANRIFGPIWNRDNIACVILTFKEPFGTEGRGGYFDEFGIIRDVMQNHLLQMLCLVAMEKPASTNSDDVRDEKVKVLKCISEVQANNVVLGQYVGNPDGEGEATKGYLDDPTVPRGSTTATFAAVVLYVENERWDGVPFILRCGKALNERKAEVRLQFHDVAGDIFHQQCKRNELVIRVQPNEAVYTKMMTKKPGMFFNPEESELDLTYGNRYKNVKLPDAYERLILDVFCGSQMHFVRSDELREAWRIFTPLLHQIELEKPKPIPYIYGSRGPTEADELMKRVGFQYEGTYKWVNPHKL

`C[c-]1[c-](C)[c-](C)[c-](C)[c-]1C.[Fe].c1cc2nccc(N3CCCC3)[c-]2c1` (stereo unspecified): the IC50 (commonly the point on the concentration scale where inhibition reaches its midpoint) is > 80 µM (inactive).
